Reference: patent publication US4888283A, “Selective inhibitors of benzylaminoxidases with respect to other aminoxidases” (priority 1985, dated 1989)
Counter-ions that a name gives are not always drawn.

Tests used:
Type in all cases: biochemical
[1] = target: Pure BAO obtained from swine plasma; assay: Inhibition of benzylaminoxidase (BAO), isotopic procedure with 14C-benzylamine; conditions: for IC50: 30 minutes pre-incubation, 14C-benzylamine 1,7 mM (saturating), mean ± s.e.; for Activity as inhibitors of BAO (in words): compounds already known in the literature, prepared again
Procedure: The quantitative determination of benzylaminoxidases (BAO's) is carried out by the isotopic procedure disclosed by F. Buffoni and G. Ignesti (Biochem. J.; 145, 369 (1975)) employing ^14 C-benzylamine as the substrate at the final concentration of 1,7 mM.
(§1) Pure BAO obtained from swine plasma by the procedure disclosed by F. Buffoni and H. Blaschko (Proc. Roy. Soc. B 161, 153 (1964)); DAO from swine kidney, as obtained and purified by the Sigma (St. Louis, Md., USA, 0.25 U/mg); purified LAO from swine aorta obtained by the procedure disclosed by F. Buffoni and L. Raimondi (Agents and Actions, 11, 38 (1981)). Rat liver mitochondria obtained by the procedure disclosed by G. W. Schneider and G. H. Hogeboon (J. Biol. Chem., 183, 123 (1950)) were employed as the source of MAO.
(§2) IC50 (M)=The molar concentration of the inhibitor that inhibits 50% of the enzyme activity at a saturating concentration of the substrate. Said concentration is calculated from curves obtained by pre-incubation of the compound for 30 minutes (at 6 different concentrations) with the enzyme before adding the substrate and determining the enzymic rate.
(§3) The repetition of the experiments allows to obtain the average values of the IC50 (M) as well as the relative standard errors.

[2] = target: T1, DAO from swine kidney (Sus scrofa, UniProt Q9TRC7); assay: Inhibition of diaminoxidase (DAO), isotopic method with 14C-putrescine; conditions: 30 minutes pre-incubation; 14C-putrescine 1 mM; mean ± s.e.
T1 construct: DAO from swine kidney, as obtained and purified by the Sigma; purchased Sigma (St. Louis); host or cells: swine kidney
T1 sequence (Q9TRC7 25-755): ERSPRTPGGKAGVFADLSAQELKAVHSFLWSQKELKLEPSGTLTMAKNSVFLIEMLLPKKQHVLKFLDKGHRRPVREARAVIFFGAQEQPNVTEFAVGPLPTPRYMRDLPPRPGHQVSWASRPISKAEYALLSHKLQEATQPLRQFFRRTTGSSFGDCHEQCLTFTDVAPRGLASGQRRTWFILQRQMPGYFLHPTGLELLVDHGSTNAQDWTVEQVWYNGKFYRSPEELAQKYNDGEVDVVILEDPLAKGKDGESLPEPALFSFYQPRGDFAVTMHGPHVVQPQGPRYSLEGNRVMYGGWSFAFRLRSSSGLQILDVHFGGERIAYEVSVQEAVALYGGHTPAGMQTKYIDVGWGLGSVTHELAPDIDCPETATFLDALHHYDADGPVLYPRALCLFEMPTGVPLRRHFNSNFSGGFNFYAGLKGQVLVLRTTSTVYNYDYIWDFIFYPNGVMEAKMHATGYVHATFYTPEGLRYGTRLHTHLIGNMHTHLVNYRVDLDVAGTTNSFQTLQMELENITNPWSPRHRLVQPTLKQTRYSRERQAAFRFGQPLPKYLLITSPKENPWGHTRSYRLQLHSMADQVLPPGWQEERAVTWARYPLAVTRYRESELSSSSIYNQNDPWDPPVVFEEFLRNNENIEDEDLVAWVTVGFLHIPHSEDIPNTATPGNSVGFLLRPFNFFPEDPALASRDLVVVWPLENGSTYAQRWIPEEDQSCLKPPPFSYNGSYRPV
Procedure: The quantitative determination of the diaminoxidases (DAO's) is performed by the isotopic method disclosed by J. Kusche, H. Richter, R. Hesterberg, J. Schmidt, W. Lorenz, (Agents and Actions, 3, 148-156 (1973)) employing ^14 C-putrescine as the substrate at the final concentration of 1 mM.
as §1, §2, §3

[3] = test system: MAO (rat liver mitochondria); assay: Inhibition of monoaminoxidases (MAO), isotopic procedure with 14C-beta-phenylethylamine; conditions: 30 minutes pre-incubation; 14C-beta-phenylethylamine 1.7 mM; mean ± s.e.
Procedure: The quantitative determination of monoaminoxidases (MAO's) is carried out by the same procedure as the determination of BAO's, but ^14 C-beta-phenylethylamine is employed at the final concentration of 1.7 mM.
as §1, §2, §3

[4] = test system: Pure BAO obtained from swine plasma; assay: Compound as the substrate of BAO (production of H2O2); design: key: the compound is the substrate; ns: the compound is not the substrate; conditions: 37° C., air
Procedure: (§4) The oxidation of the compound is estimated in all cases by measuring the production of H2 O2. Such operation is carried out within a temperature-controlled bath set at 37° C. and stirred, in the presence of air. The production-of H2 O2 is quantitatively determined by the method of H. P. Lehman, K. H. Schosinsky, M. F. Beeler (Clin. Chem., 20, 1564 (1974)).
as §1

[5] = target: T1, DAO from swine kidney; assay: Compound as the substrate of DAO (production of H2O2); design: key: the compound is the substrate; ns: the compound is not the substrate; conditions: 37° C., air
Procedure: as §4, §1

[6] = test system: MAO (rat liver mitochondria); assay: Compound as the substrate of MAO (production of H2O2); design: key: the compound is the substrate; ns: the compound is not the substrate; conditions: 37° C., air
Procedure: as §4, §1

[7] = test system: Pure BAO obtained from swine plasma; assay: Reversibility of BAO inhibition by dialysis; design: key: reversible inhibition; irreversible inhibition; pr: partially reversible inhibition; conditions: dialysis of the solution
Source text: as §1
The reversibility of the effect was evaluated showing that the inhibition caused by a certain concentration of the inhibitor (for instance the IC50 value) would be reverted by dialysis of the solution.

[8] = test system: Pure BAO obtained from swine plasma; assay: Inhibition type on BAO (Lineweaver-Burk); design: key: competitive inhibition; nc: not competitive inhibition; mixed inhibition; conditions: 1/v vs. 1/s, 5 substrate concentrations
Source text: as §1
The inhibition type was evaluated by studying the effect of the compound on the enzymic rate (v) at 5 different concentrations of the substrate (s) and plotting the results by the classical procedure as 1/v vs. 1/s according to Lineweaver-Burk.

Structure (SMILES)	IC50 [1] [mM]	IC50 [2] [mM]	IC50 [3] [mM]	BAO: compound as the substrate [4]	DAO: compound as the substrate [5]	MAO: compound as the substrate [6]	BAO: reversibility of the inhibition [7]	BAO: inhibition type [8]	Activity as inhibitors of BAO (in words) [1]
CCOc1cccc(OCC)c1CN.Cl [Example 1, 2,6-diethoxybenzylamine hydrochloride]	0.00018	12.5 ± 0.001	6.4 ± 0.0005	ns	s	ns	pr	m	
CCCOc1cccc(OCCC)c1CN.Cl [Example 2, 2,6-di(n-propoxy)benzylamine hydrochloride]			> 1	ns	s weak	s	pr	m	
CC(C)Oc1cccc(OC(C)C)c1CN.Cl [Example 3, 2,6-diisopropoxybenzylamine hydrochloride]	> 1		> 1	s weak	s weak	s weak			
CCCCOc1cccc(OCCCC)c1CN.Cl [Example 4, 2,6-di(n-butoxy)benzylamine hydrochloride]	0.00014		> 1	ns	s	ns	pr	nc	
Cl.NCc1ccccc1O [Example 5, 2-hydroxybenzylamine hydrochloride]	1	1	> 1	s	s	ns			active indeed, though at a low degree
Cl.NCc1ccccc1CO [Example 6, 2-hydroxymethylbenzylamine hydrochloride]	1		> 1	s	s	ns			active indeed, though at a low degree
COc1cccc(OC)c1CN.Cl [Example 7, 2,6-di-methoxybenzylamine hydrochloride]	0.12	5.6 ± 0.0003	0.19	ns	s	s weak	r	m	active indeed, though at a low degree
NCc1c(O)cccc1O [Example 8, 2,6-dihydroxybenzylamine hydrochloride]	1		> 1						
COCc1cccc(COC)c1CN.Cl [Example 10, 2,6-bis(methoxymethyl)benzylamine hydrochloride]			> 1	ns	s	ns	pr	m	
CCc1cccc(CC)c1CN.Cl [Example 11, 2,6-diethylbenzylamine hydrochloride]			> 1	ns	s	s	r	nc	
Cl.NCc1c(OCCO)cccc1OCCO [Example 13, 2,6-bis(hydroxyethoxy)benzylamine hydrochloride]	0.0026		> 1	ns	s	ns	pr	m	
